Data taken from patent US7115592B2, “Phosphonate substituted pyrimidine compounds and methods for therapy” (priority 2003, dated 2006).
In brackets after ≈: the same amount, converted by molar mass. Marks after values point to notes of the source that are not given here.

Experiments:
HIV = assay: microbe, parasite or virus in culture; type: cell-based; settings: for EC50: Human immunodeficiency virus 1, HIV type not specified, read-out: inhibitory against HIV at
[1] = test system: MSV-induced tumor cell formation; assay: Inhibitory activity against MSV-induced tumor cell formation in newborn NMRI mice; type: in vivo; settings: for % survivors on day 12 / % tumor free on day 12 / Mean day of animal death / Mean day of tumor initiation: virus i.m. at day 1; for tumor formation: at 50 and 20 mg/kg; for order of antiviral efficacy: among the 5-cyano, 5-chloro and 5-methyl derivatives
Description: The 5-cyano (Example 8), 5-methyl (Example 5) and 5-chloro-2,4-diamino-6-[2-(phosphonomethoxy)ethoxy]pyrimidine were also evaluated for their antiretroviral activity in MSV-infected newborn NMRI mice in comparison with PMEA and (R)-PMPA. […] At 5 mg/kg, 90% of mice were free from tumor formation in the presence of 5-methyl derivative, compared with 70% and 10% in the presence of PMEA and (R)-PMPA. […] This phenomenon was also seen with PMEA at 50 and 20 mg/kg, but not with (R)-PMPA at 50 mg/kg.
Inhibitory activity of test compounds against MSV-induced tumor cell formation in newborn NMRI mice

HIV-1 = assay: microbe, parasite or virus in culture; type: cell-based; settings: Human immunodeficiency virus 1; read-out: EC50 against HIV-1
[2] = Cytostatic activity in CEM cell cultures; settings: human
VZV = assay: Anti-VZV activity; type: cell-based
HIV-2 = assay: microbe, parasite or virus in culture; type: cell-based; settings: Human immunodeficiency virus 2; read-out: EC50 against HIV-2
MSV = assay: Antiviral activity against MSV in cell culture; type: cell-based, murine (MSV); settings: Mus musculus; in vitro; read-out: inhibitory against MSV (EC50)

Row | SMILES | melting point | Mean day of animal death ([1]; 5 mg/kg i.p. at days 1-5) [days] | Mean day of tumor initiation ([1]; 5 mg/kg i.p. at days 1-5) [days] | % survivors on day 12 ([1]; 20 mg/kg i.p. at days 1-5) | Mean day of animal death ([1]; 20 mg/kg i.p. at days 1-5) [days] | Mean day of tumor initiation ([1]; 20 mg/kg i.p. at days 1-5) [days] | Mean day of animal death ([1]; 50 mg/kg i.p. at days 1-5) | Mean day of tumor initiation ([1]; 50 mg/kg i.p. at days 1-5) [days] | other results
1 | N#CCc1c(N)nc(N)nc1OCCOCP(=O)(O)O | 258 to 259 °C (dec.) | – | – | – | – | – | – | – | –
2 | CCOC(=O)Cc1c(N)nc(N)nc1OCCOCP(=O)(O)O | 199 to 200 °C | – | – | – | – | – | – | – | –
3 | Nc1nc(N)c(C2CC2)c(OCCOCP(=O)(O)O)n1 | 255 to 256 °C | – | – | – | – | – | – | – | –
4 | Nc1nc(N)c(Cc2ccccc2)c(OCCOCP(=O)(O)O)n1 (hydrate or solvate) | 241 to 242 °C | – | – | – | – | – | – | – | –
5 | Nc1nc(N)c(CC(=O)O)c(OCCOCP(=O)(O)O)n1 (hydrate or solvate) | 228 to 229 °C | – | – | – | – | – | – | – | –
6 | Nc1nc(N)c(-c2ccccc2)c(OCCOCP(=O)(O)O)n1 (hydrate or solvate) | 230 to 231 °C | – | – | – | – | – | – | – | –
7 | Nc1nc(N)c(C=O)c(OCCOCP(=O)(O)O)n1 (hydrate or solvate) [Example 9, 5-Formyl-2,4-diamino-6-[2-(phosphonomethoxy)ethoxy]pyrimidine] | 225 to 227 °C | – | – | – | – | – | – | – | –
8 | Nc1cc(OCCOCP(=O)(O)O)nc(N)n1 [5-unsubstituted compound, 2,4-diamino-6-[2-(phosphonomethoxy)ethoxy]pyrimidine, reference compound] | – | – | – | – | – | – | – | – | anti-HIV activity less potent than anti-MSV activity (HIV; ratio of anti-HIV to anti-MSV potency): 20 fold
9 | C[C@H](Cn1cnc2c(N)ncnc21)OCP(=O)(O)O [(R)-PMPA] | – | > 12 | 10.5 ± 2.12 | 100% | > 12 | > 12 | > 12 days | > 12 | % survivors on day 12 ([1]; 5 mg/kg i.p. at days 1-5): 100%; % tumor free on day 12 ([1]; 5 mg/kg i.p. at days 1-5): 10%; % tumor free on day 12 ([1]; 20 mg/kg i.p. at days 1-5): 100%; % survivors on day 12 ([1]; 50 mg/kg i.p. at days 1-5): 100%; % tumor free on day 12 ([1]; 50 mg/kg i.p. at days 1-5): 100%; tumor formation [1]: completely prevented
10 | Cc1c(N)nc(N)nc1OCCOCP(=O)(O)O [Example 5, 5-Methyl-2,4-diamino-6-[2-(phosphonomethoxy)ethoxy]pyrimidine] | – | > 12 | 8.0 | 100% | > 12 | > 12 | 10.1 ± 1.10^b day | > 12 | % survivors on day 12 ([1]; 5 mg/kg i.p. at days 1-5): 100%; % tumor free on day 12 ([1]; 5 mg/kg i.p. at days 1-5): 90%; % tumor free on day 12 ([1]; 20 mg/kg i.p. at days 1-5): 100%; % tumor free on day 12 ([1]; 50 mg/kg i.p. at days 1-5): 100%; Mean day of animal death ([1]; 50 mg/kg i.p. at days 1-5, listed as 5-methyl-2,4-diamino-6-[2-(phosphonomethoxy)ethoxy]pyrimidine): 10.1 days; order of antiviral efficacy [1]: most effective agent; tumor formation [1]: completely prevented; EC50 (HIV-1): 0.065 µg/mL (≈ 0.234 µM); CC50 [2]: 1.3 to 4.1 µg/mL (≈ 4.67 to 14.7 µM); anti-VZV activity (VZV): moderate anti-VZV activity; EC50 (HIV-2): 0.065 µg/mL (≈ 0.234 µM); EC50 (MSV): 0.04 to 0.06 µg/mL (≈ 0.144 to 0.216 µM)
11 | Nc1nc(N)c(Cl)c(OCCOCP(=O)(O)O)n1 [Example 5-Cl, 5-chloro-2,4-diamino-6-[2-(phosphonomethoxy)ethoxy]pyrimidine] | – | 11.5 ± 0.69 | 6.70 ± 0.80 | (80%) | 11.8 ± 0.50 | 7.44 ± 1.42 | > 12 days | 8.76 ± 1.86 | % survivors on day 12 ([1]; 5 mg/kg i.p. at days 1-5): (45%); % tumor free on day 12 ([1]; 20 mg/kg i.p. at days 1-5): 10%; % survivors on day 12 ([1]; 50 mg/kg i.p. at days 1-5): 100%; % tumor free on day 12 ([1]; 50 mg/kg i.p. at days 1-5): 15%
12 | N#Cc1c(N)nc(N)nc1OCCOCP(=O)(O)O [Example 8, 5-Cyano-2,4-diamino-6-[2-(phosphonomethoxy)ethoxy]pyrimidine] | – | 10.9 ± 0.57 | 6.40 ± 0.70 | (60%) | 11.5 ± 0.58 | 7.20 ± 1.03 | > 12 days | 8.20 ± 1.62 | % survivors on day 12 ([1]; 50 mg/kg i.p. at days 1-5): 100%; order of antiviral efficacy [1]: least effective agent; EC50 (HIV): 0.8 to 3.3 µg/mL (≈ 2.77 to 11.4 µM); EC50 (MSV): 2.7 to 6 µg/mL (≈ 9.34 to 20.7 µM)
13 | Nc1nc(N)c(C=O)c(OCCOCP(=O)(O)O)n1 [Example 9, 5-Formyl-2,4-diamino-6-[2-(phosphonomethoxy)ethoxy]pyrimidine] | – | – | – | – | – | – | – | – | EC50 (HIV): 0.8 to 3.3 µg/mL (≈ 2.74 to 11.3 µM); EC50 (MSV): 2.7 to 6 µg/mL (≈ 9.24 to 20.5 µM)
14 | Nc1ncnc2c1ncn2CCOCP(=O)(O)O [PMEA, 9-(2-phosphonylmethoxyethyl)adenine] | – | > 12 | 9.33 ± 0.58 | 90% | 9.0 | > 12 | 8.80 ± 0.63^b day | > 12 | % survivors on day 12 ([1]; 5 mg/kg i.p. at days 1-5): 100%; % tumor free on day 12 ([1]; 5 mg/kg i.p. at days 1-5): 70%; % tumor free on day 12 ([1]; 20 mg/kg i.p. at days 1-5): 100%; % tumor free on day 12 ([1]; 50 mg/kg i.p. at days 1-5): 100%; tumor formation [1]: completely prevented; CC50 [2]: 11 µg/mL (≈ 40.3 µM)
